Experimental data reported in US9951010B2, “Compounds as CRTH2 antagonist and uses thereof” (SUNSHINE LAKE PHARMA CO., LTD., priority 2014, dated 2018).

Columns and labels:
[1] = Metabolic stability in dog liver microsomal; format: in vitro ADME; conditions: liver microsomes, pH 7.4, 37° C.
Procedure: (§1) The analysis was performed using a 4000 QTRAPP series LC/MS/MS mass spectrometer equipped with Agilent 1200 dual injection pumps, 1290 automatic sampler, column oven and ESI source, detecting by the negative ion MRM mode. Waters Xbridge C18 column was used in the analysis, and the mobile phase consisted of phase (A) (2 mM ammonium formate+0.1% aqueous ammonia solution) and phase (B) (2 mM ammonium formate+0.1% ammonia methanol solution), the flow rate was 0.4 mL/min, column temperature was 40° C., the amount of injection was 3 μL.
(§2) A mixture of the compound and human liver microsomal, a mixture of the compound and dog liver microsomal, or a mixture of the compound and rat liver microsomal were separately incubated at 37° C., under a condition of pH7.4. The sample concentrations at various incubative times were detected by LC/MS/MS (the method described in biologic example 3), speed constant was obtained by plotting “Log [drug concentration]” to “incubative time” in GraphPad Prism 5.01, and the drug half-life and intrinsic clearance rate were calculated; metabolic stability of the compound in liver microsomal were evaluated based on the drug half-life and intrinsic clearance rate.

Detection of PK in rats = format: in vivo; conditions: rat, plasma
Procedure: as §1
(§3) The male Beagle dogs or rats were administered with the compound of the invention by intravenous injection (0.4 mg/Kg) and gavage (1 mg/Kg) respectively, the blood samples were collected at the time point of 0.083, 0.25, 0.5, 1, 2, 4, 6, 8, 10, 24 and 36 h and then centrifuged to obtain plasma samples. The compound concentrations in plasma samples at various times were detected by LC/MS/MS (the method described in biologic example 3), the main pharmacokinetic parameters were calculated, and pharmacokinetic properties of the compounds of the invention in Beagle dogs or rats were evaluated.

[2] = tested on: OVA (ovalbumin)-induced asthmatic model in rats; experiment: OVA (ovalbumin)-induced asthmatic model in rats, count of white blood cells in lung lavage; format: in vivo; conditions: OVA-sensitized rats, gavage once a day for three days, lung lavage solution
Procedure: The experiment purpose was to assess the drug efficacy of the test compound in OVA (ovalbumin)-induced asthmatic model in rats.
Grouping the animal randomly to control group, model group and administered group. At the first, second and third day, the control group was administered with 1 mL of PBS (phosphate buffer solution) by intraperitoneal injection, and the model group and administered group were administered with a sensitization solution (prepared by mixing 6 mL of 1% OVA in phosphate buffer solution and 54 mL of alum solution at a ratio of 1:9) by intraperitoneal injection per day (1 mL per rat).
From the nineteenth day, the administered group was administered with the test compound at a certain dose by gavage, and the control group and model group was administered with the menstruum at a corresponding dose by gavage, once a day for three days. After 1 hour of administering each day, attacking the model group and administered group with 1% OVA in phosphate buffer solution and the control group with phosphate buffer solution for 20 min.
At the twenty-third day, the animals were anesthetized with 1% pentobarbital sodium (60 mg/Kg) by intraperitoneal injection. The blood samples were collected from aorta abdominalis under pentobarbital sodium anaesthesia into EDTA-K2 tubes. After tracheal intubation was performed, the lung of the animals were lavaged with 3 mL of PBS containing 1% FBS (Fetal Bovine Serum) once, and then lavaged with 5 mL of PBS containing 1% FBS at least two times; the volume of the combined lavage solutions were adjusted to 15 mL. The total cells in the lavage solution were counted by using a hemacytometer and a Trypan blue staining method and then white blood cells in the lavage solution were counted differentially.

[3] = Metabolic stability in human liver microsomal; format: in vitro ADME; conditions: liver microsomes, pH 7.4, 37° C.
Procedure: as §1, §2

[4] = tested on: eosinophilia in airway of Wistar rats induced by DK-PGD2; experiment: Eosinophilia in airway of Wistar rats induced by DK-PGD2, cell count in BALF; format: in vivo; parameters: The total number of white blood cells: unit not given here
Procedure: Purpose: evaluation of inhibitory effects of the compounds on the total number of white blood cells and eosinophilia in airway of Wistar rats induced by DK-PGD2.
Process: observation on the drug therapeutic effect through preventive medication. Specific operation: After 0.5 h of administering a preventive dose, the administered group and model group were induced eosinophilia with 100 μL of DK-PGD2 by spray injection through airway of rats, the blank group was spray injected with a corresponding dose of normal saline; after 24 h of molding, the rats were killed by bloodletting from aorta abdominalis, exposing the airway and the chest, performing the trachea cannula, and the bronchial pulmonary alveoli were lavaged with 8 mL of 1% BSA in PBS in twice, the bronchoalveolar lavage fluids (BALF) were collected and placed in an ice-bath; after smear, the cells were differential counted. The concentration of DK-PGD2 mother liquor was 10 mg/mL, which was diluted 5 folds to get 2 mg/mL.

[5] = Detection of PK in Beagle dogs; format: in vivo; conditions: male, dog, plasma
Procedure: as §1, §3

[6] = Metabolic stability in rat liver microsomal; format: in vitro ADME; conditions: liver microsomes, pH 7.4, 37° C.
Procedure: as §1, §2

CRTH2 receptor = target: T1, CRTH2 receptor (Homo sapiens, UniProt Q9Y5Y4); experiment: FLIPR detection of inhibitory activity against CRTH2 (CHO-K1/G cells, PGD2 as agonist); format: cell-based; conditions: CHO-K1/G cells with stable expression of CRTH2 receptor, PGD2 at EC80, FLIPR
T1 construct: expressed in transfected cells; host or cells: CHO-K1/G cells
T1 sequence (Q9Y5Y4 1-395): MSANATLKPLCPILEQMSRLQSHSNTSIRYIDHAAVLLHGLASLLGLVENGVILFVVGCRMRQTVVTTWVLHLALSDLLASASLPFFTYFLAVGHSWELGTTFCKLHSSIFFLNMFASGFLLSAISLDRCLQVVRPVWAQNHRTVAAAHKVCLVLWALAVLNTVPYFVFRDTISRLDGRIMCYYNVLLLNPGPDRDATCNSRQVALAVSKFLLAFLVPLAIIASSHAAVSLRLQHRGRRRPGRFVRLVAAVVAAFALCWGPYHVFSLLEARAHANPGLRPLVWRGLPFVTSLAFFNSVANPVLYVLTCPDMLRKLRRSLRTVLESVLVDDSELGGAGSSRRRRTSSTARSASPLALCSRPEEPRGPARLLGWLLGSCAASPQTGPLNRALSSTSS
Procedure: The test compound was weighed accurately and then dissolved in a suitable amount of DMSO to prepare a stock solution at a concentration of 10 mM; after clear and transparent, the stock solution was subpackaged and cryostoraged at −20° C. for use. Before testing, the test compound was diluted with balanced salt solution (HBSS buffer, containing 4-(2-hydroxyethyl)piperazine-1-ethanesulfonicacid) at a concentration of 20 mM) to 5 times testing concentration.
CHO-K1/G cells with stable expression of CRTH2 receptor were prepared to 5 times testing concentration and seeded into 384-microwell plate, and incubated in an incubator at 37° C./5% CO2. After incubating for 18 hours, to the cells in 384-microwell plate was added 20 μL of dye followed by the addition of 10 μL of prepared test compound solution. And then the cell plate was incubated in the incubator at 37° C./5% CO2 for 1 hour, at last which was balanced at rt for 15 min. After adding 12.5 μL of positive agonist (PGD2) at a concentration of 5 times EC80 to each well of the cell plate, the RFU (fluorescence intensity) value of the test compound was detected.
The data were recorded from ScreenWorks (version 3.1), and collected and analyzed by using Excel and GraphPad Prism 6 software to calculate the values of IC50.

[7] = pH7.4, intrinsic clearance, read-out: Clearance rate
[8] = pH7.4, read-out: Drug half-life
[9] = Wistar rats, 10 mg/Kg preventive dose 0.5 h before DK-PGD2, BALF after 24 h

Q: What does the source list for `Cc1c(C2CCN(S(=O)(=O)c3ccc(F)cc3)CC2)c2cc(F)ccc2n1CC(=O)O` [Example 24, 2-(5-fluoro-3-(1-((4-fluorophenyl)sulfonyl)piperidin-4-yl)-2-methyl-1H-indol-1-yl)acetic acid]?
A: CLint scaled [1, 7]: 1.37 mL/min/kg; half-life [1, 8]: 42.1 h; AUC(0-inf) (Detection of PK in rats; iv, 0.4 mg/Kg): 1030 ng·h/mL; AUC(0-t) (Detection of PK in rats; iv, 0.4 mg/Kg): 991 ng·h/mL; Cmax (Detection of PK in rats; iv, 0.4 mg/Kg): 757 ng/mL; half-life (Detection of PK in rats; iv, 0.4 mg/Kg): 3.4 h; AUC(0-inf) (Detection of PK in rats; po, p.o. (gavage), 1 mg/Kg): 1890 ng·h/mL; AUC(0-t) (Detection of PK in rats; po, p.o. (gavage), 1 mg/Kg): 1710 ng·h/mL; Cmax (Detection of PK in rats; po, p.o. (gavage), 1 mg/Kg): 393 ng/mL; half-life (Detection of PK in rats; po, p.o. (gavage), 1 mg/Kg): 4.37 h; Eosinophilic granulocyte Inhibition ratio [2]: 36.8%; Eosinophilic granulocyte Number (×10^5/mL) [2]: 145.82 ×10^5/mL; Total number of white cells (×10^5/mL) [2]: 272.775 ×10^5/mL; CLint scaled [3, 7]: 2.55 mL/min/kg; half-life [3, 8]: 11.4 h; inhibitory effects on the total number of white blood cells and the number of eosinophilic granulocytes ([4]; Wistar rats induced by DK-PGD2, compared with OC000459): stronger than those of OC000459; Eosinophilic granulocyte C (10^5/ml) [4, 9]: 0.0804 ± 0.02^## 10^5/ml; Eosinophilic granulocyte Inhibition rate [4, 9]: 80.77%; The total number of white blood cells [4, 9]: 1.881 ± 0.26; AUC(0-inf) ([5]; iv, 0.4 mg/Kg): 5500 ng·h/mL; AUC(0-t) ([5]; iv, 0.4 mg/Kg): 5400 ng·h/mL; Cmax ([5]; iv, 0.4 mg/Kg): 3210 ng/mL; half-life ([5]; iv, 0.4 mg/Kg): 4.72 h; AUC(0-inf) ([5]; po, p.o. (gavage), 1 mg/Kg): 6920 ng·h/mL; AUC(0-t) ([5]; po, p.o. (gavage), 1 mg/Kg): 6600 ng·h/mL; Cmax ([5]; po, p.o. (gavage), 1 mg/Kg): 1160 ng/mL; half-life ([5]; po, p.o. (gavage), 1 mg/Kg): 10.8 h; CLint scaled [6, 7]: 13.8 mL/min/kg; half-life [6, 8]: 3 h; IC50 (CRTH2 receptor): 148 nM
